{"source": "patent US20240391940A1", "about": "“FUSED RING-CONTAINING COMPOUND, APPLICATION THEREOF, AND COMPOSITION CONTAINING SAME” (GenEros Biopharma Ltd., priority 2020, published 2024)", "key": {"[1]": {"system": "IMQ-induced psoriasis mouse model", "test": "IMQ-induced psoriasis mouse model (PASI scoring)", "type": "in vivo, Balb/c mice", "design": "key to skin thickening in psoriasis mice (score) / skin redness in psoriasis mice (score) / skin scaling in psoriasis mice (score): 0 = none to 4 = very severe, per sign", "conditions": "DEX 3 mpk PO QD", "experimental": "Method: This experiment used a total of 19 mice. A natural skin observation control (n=1). 2 cm^2 of hair was shaved off the backs of […] on day 0, the stubble was removed with a mild depilatory cream, and the original skin was photographed. 62.5 mg of IMQ was applied to each of the mice. There was a mock group (n=6), a DEX (3 mg/kg, PO., qD) group (n=6), and a GEN1-284s (30 mg/kg, PO, qD) group (n=6). On the day of modeling, administration was performed in a volume of 100 μL/20 g body weight 4 h after IMQ application. The PASI scoring method was used to score the erythema, swelling and scaling on the skin of the mice. The experiment took a total of 6 days. The first day was set to day 0. IMQ application and administration were not performed on day 5. The mice were sacrificed with carbon dioxide at the end of the experiment.\nThe test animals were anesthetized with isoflurane. 2 cm^2 of hair was shaved off the backs of the mice, and the stubble was removed with a depilatory cream. IMQ application was performed for a total of 5 days, from day 0 to day 4. Scoring and IMQ application were performed every morning. Administration was performed in the afternoon\nDesquamation (D): means epidermal cells flake off. The severity scores of skin lesions were as follows: • 0=none; this sign cannot be confirmed by careful observation • 1=mild; this sign can be confirmed but careful observation is required • 2=moderate; this sign is more visible and can be confirmed immediately • 3=severe; this sign is marked. • 4=very severe; this sign is very marked.\nInduration I: 0—skin lesions are at the same level as normal skin; • 1—skin lesions are at slightly higher levels than normal skin surface; • 2—lesions moderately stick out and have round or slope-shaped borders; • 3—skin lesions are thick and markedly stick out; • 4—skin lesions are very thick and very markedly stick out.\nErythema E: • 0—no visible erythema; • 1—light red; • 2—red; • 3—dark red; • 4—the red is very dark"}, "[2]": {"system": "LPS-induced production of TNF-α", "test": "LPS-induced TNF-α production in mice (plasma ELISA)", "type": "in vivo", "conditions": "Balb/c mice; dexamethasone 3 mpk, LPS 1 mpk i.p. 0.5 h after administration, plasma 2 h after LPS", "experimental": "Materials and method: A total of 18 mice were used in this experiment. The mice were divided into a MOCK group (n=6), a dexamethasone group (n=6), and a GEN1-284s 15 mpk group (n=6). LPS (1 mpk) was intraperitoneally injected 0.5 h after administration. The mice were sacrificed 2 h after the LPS injection, and blood samples were taken. The blood samples were left in EDTA-K2 anticoagulant tubes at room temperature for 20 min and centrifuged at 8000 rpm for 10 min. The plasma was separated and cryopreserved at −80° C. before analysis.\nLPS (1 mpk) was intraperitoneally injected 0.5 h after administration. The mice were sacrificed 2 h after the LPS injection, and blood samples were taken. The blood samples were left in EDTA-K2 anticoagulant tubes at room temperature for 20 min and centrifuged at 8000 rpm for 10 min. The plasma was separated and cryopreserved at −80° C. before analysis.\nThe mice were tested for TNF-α level with ELISA kits, and the inhibitory effect of GEN1-284s on the TNF-α level was evaluated.\nAccording to the instructions for use, a standard curve formula (y=0.0038x+0.1206, R^2=0.9956) was obtained and can be used to calculate detection values."}, "[3]": {"conditions": "DAY 1, individual mice, listed as DEX"}, "[4]": {"conditions": "DAY 2, individual mice, listed as DEX"}, "[5]": {"conditions": "DAY 3, individual mice, listed as DEX"}, "[6]": {"conditions": "DAY 4, individual mice, listed as DEX"}, "[7]": {"conditions": "DAY 5, individual mice, listed as DEX"}}, "note": "“And” between values parts separate entries of the source, which are not always exact repeats. Equal values may be shown once."}
{"smiles": "C[C@@H]1C[C@H]2[C@@H]3CCC4=CC(=O)C=C[C@]4(C)[C@@]3(F)[C@@H](O)C[C@]2(C)[C@@]1(O)C(=O)CO", "note": "[dexamethasone, Dexamethasone, reference compound]", "values": [{"measurement": "overall effect on the skin of psoriasis mice (score)", "setting": "[1]; DAY 0, individual mice", "value": 0}, {"measurement": "skin redness in psoriasis mice (score)", "setting": "[1]; DAY 0, individual mice", "value": 0}, {"measurement": "skin scaling in psoriasis mice (score)", "setting": "[1]; DAY 0, individual mice", "value": 0}, {"measurement": "skin thickening in psoriasis mice (score)", "setting": "[1]; DAY 0, individual mice", "value": 0}, {"measurement": "overall effect on the skin of psoriasis mice (score)", "setting": "[1]; [3]", "value": "1.167 (2×) and 0.5 and 1.333 (2×) and 0.8333"}, {"measurement": "skin redness in psoriasis mice (score)", "setting": "[1]; [3]", "value": "0.6667 (2×) and 0.1667 and 0.3333 and 0.5 (2×)"}, {"measurement": "skin scaling in psoriasis mice (score)", "setting": "[1]; [3]", "value": "0.5 and 0.3333 (2×) and 0.8333 (2×) and 0.1667"}, {"measurement": "skin thickening in psoriasis mice (score)", "setting": "[1]; [3]", "value": "0 (5×) and 0.5"}, {"measurement": "overall effect on the skin of psoriasis mice (score)", "setting": "[1]; [4]", "value": "1.333 and 1 and 0.5 and 0.8333 and 1.667 and 0.6667"}, {"measurement": "skin redness in psoriasis mice (score)", "setting": "[1]; [4]", "value": "0.5 (2×) and 0.6667 (2×) and 0.1667 (2×)"}, {"measurement": "skin scaling in psoriasis mice (score)", "setting": "[1]; [4]", "value": "0.8333 and 0.3333 and 0 (2×) and 0.6667 and 1"}, {"measurement": "skin thickening in psoriasis mice (score)", "setting": "[1]; [4]", "value": "0 (5×) and 0.5"}, {"measurement": "overall effect on the skin of psoriasis mice (score)", "setting": "[1]; [5]", "value": "2.5 and 3 and 1 and 2 (2×) and 1.667"}, {"measurement": "skin redness in psoriasis mice (score)", "setting": "[1]; [5]", "value": "1.167 and 1 and 0.5 (2×) and 0.3333 and 0.6667"}, {"measurement": "skin scaling in psoriasis mice (score)", "setting": "[1]; [5]", "value": "1.333 and 1.5 and 0.5 (2×) and 1 and 1.167"}, {"measurement": "skin thickening in psoriasis mice (score)", "setting": "[1]; [5]", "value": "0 (2×) and 0.5 (4×)"}, {"measurement": "overall effect on the skin of psoriasis mice (score)", "setting": "[1]; [6]", "value": "2.333 (2×) and 1.5 and 3.5 and 3.667 and 2.667"}, {"measurement": "skin redness in psoriasis mice (score)", "setting": "[1]; [6]", "value": "0.6667 and 0.5 (2×) and 1.167 (2×) and 1.667"}, {"measurement": "skin scaling in psoriasis mice (score)", "setting": "[1]; [6]", "value": "1.167 and 1 (2×) and 1.833 and 1.333 and 1.5"}, {"measurement": "skin thickening in psoriasis mice (score)", "setting": "[1]; [6]", "value": "0.5 (5×) and 0"}, {"measurement": "overall effect on the skin of psoriasis mice (score)", "setting": "[1]; [7]", "value": "3.333 and 2.5 and 3.667 and 2.833 (2×) and 3.5"}, {"measurement": "skin redness in psoriasis mice (score)", "setting": "[1]; [7]", "value": "1.167 and 1 (2×) and 0.8333 and 0.6667 and 1.5"}, {"measurement": "skin scaling in psoriasis mice (score)", "setting": "[1]; [7]", "value": "1.667 (2×) and 1.5 (2×) and 2.333 and 1.333"}, {"measurement": "skin thickening in psoriasis mice (score)", "setting": "[1]; [7]", "value": "0.5 (5×) and 0"}, {"measurement": "Inhibition rate against LPS-induced TNF-α", "setting": "[2]", "value": 81, "unit": "%"}]}
